Laboratory results taken from patent publication US9115093B2, “Substituted bicyclic dihydropyrimidinones and their use as inhibitors of neutrophil elastase activity” (Boehringer Ingelheim International GmbH, priority 2013, dated 2015).

Each compound was assayed against T1, neutrophil elastase (Homo sapiens, UniProt P08246) (assay: Human Neutrophil Elastase Assay). Conditions: substrate MeOSuc-Ala-Ala-Pro-Val-AMC, pH 7.5, room temperature.
T1 sequence (P08246 30-247 limits assumed): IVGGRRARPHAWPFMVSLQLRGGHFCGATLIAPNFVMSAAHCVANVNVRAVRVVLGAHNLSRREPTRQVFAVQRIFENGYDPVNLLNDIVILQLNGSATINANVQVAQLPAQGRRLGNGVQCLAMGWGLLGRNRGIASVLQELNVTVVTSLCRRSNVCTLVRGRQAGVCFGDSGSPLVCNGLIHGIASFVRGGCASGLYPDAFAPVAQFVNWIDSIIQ
Assay type: biochemical
Design: purchased Calbiochem 324681
Protocol: Human Neutrophil Elastase Assay
Materials: Human neutrophil elastase was purchased from Calbiochem (Cat.No.: 324681) and the elastase substrate MeOSuc-Ala-Ala-Pro-Val-AMC from Bachem (Cat.No.: I-1270). All other materials were of the highest grade commercially available.
The following buffers were used: Compound buffer: 100 mM Tris, 500 mM NaCl, adjusted to pH 7.5; Assay buffer: 100 mM Tris, 500 mM NaCl, adjusted to pH 7.5, containing 0.01% BSA.
Assay conditions: Test compounds were prediluted in DMSO and subsequently in compound buffer (5% DMSO final). 5 μL of these compound dilutions were mixed with 10 μl Neutrophil elastase (9 ng/ml in assay buffer) in a black 384 well OptiPlate (Perkin Elmer, Cat No.: 6007270) and incubated for 15 min at room temperature. Subsequently 10 μL substrate solution in assay buffer were added (250 nM final concentration) and the plates were incubated for 60 min at room temperature. After inactivation of the enzyme, fluorescence intensities were measured at 380 nm excitation and 460 nm emission wavelengths.
Each plate contains wells with a high value control (DMSO+enzyme+substrate) and wells with a low value control (DMSO+inactivated enzyme+substrate). IC50 values were estimated using a sigmoidal concentration response curve with variable slope. Means of low values were taken as 0%, means of high values as 100%.

Row | Structure (SMILES) | IC50 [nM]
1 | CS(=O)(=O)CCNC(=O)N1C(=O)N(c2cccc(C(F)(F)F)c2)C2=C(C(=O)CCC2)C1c1ccc(C#N)cc1S(C)(=O)=O (stereo not drawn) [Example 47.4] | < 1
2 | N#Cc1ccc(C2C3=C(CCCC3=O)N(c3cccc(C(F)(F)F)c3)C(=O)N2CC2CCOC2)cc1 (stereo not drawn) [Example 25, 4-(1-(3-(Trifluoromethyl)phenyl)-2,5-dioxo-3-((tetrahydrofuran-3-yl)methyl)-1,2,3,4,5,6,7,8-octahydroquinazolin-4-yl)benzonitrile] | 8.6
3 | N#Cc1ccc(C2C3=C(CCCC3=O)N(c3cccc(C(F)(F)F)c3)C(=O)N2CC(=O)O)cc1 (stereo not drawn) [Example 32, 2-(4-(4-Cyanophenyl)-2,5-dioxo-1-(3-(trifluoromethyl)phenyl)-1,2,5,6,7,8-hexahydroquinazolin-3(4H)-yl)acetic acid] | 12
4 | CS(=O)(=O)c1cc(C#N)ccc1[C@@H]1C2=C(CCCC2=O)N(c2cccc(C(F)(F)F)c2)C(=O)N1C(=O)NCC#N [Example 75.1] | < 1
5 | N#Cc1ccc(C2C3=C(CCCC3=O)N(c3cccc(C(F)(F)F)c3)C(=O)N2CC(=O)N2CC3(CCC3)C2)cc1 (stereo not drawn) [Example 36.17] | 5.5
6 | CC1CN(C(=O)CN2C(=O)N(c3cccc(C(F)(F)F)c3)C3=C(C(=O)CCC3)C2c2ccc(C#N)cc2)CC1C (stereo not drawn) [Example 36.18] | 4
7 | N#Cc1ccc(C2C3=C(CCCC3=O)N(c3cccc(C(F)(F)F)c3)C(=O)N2CC(=O)NCCn2ccnc2)cc1 (stereo not drawn) [Example 36.30] | 5.9
8 | N#Cc1ccc(C2C3=C(CCCC3=O)N(c3ccnc(C(F)(F)F)c3)C(=O)N2C(=O)NC2CC2)cc1 (stereo not drawn) [Example 76, 4-(4-Cyanophenyl)-N-cyclopropyl-2,5-dioxo-1-(2-(trifluoromethyl)pyridin-4-yl)-1,2,5,6,7,8-hexahydroquinazoline-3(4H)-carboxamide] | 1.7
9 | CN1CCN(C(=O)N2C(=O)N(c3cccc(C(F)(F)F)c3)C3=C(C(=O)CCC3)C2c2ccc(C#N)cc2)CC1=O (stereo not drawn) [Example 39.16] | 46.9
10 | N#Cc1ccc(C2C3=C(CCCC3=O)N(c3cccc(C(F)(F)F)c3)C(=O)N2CC(=O)N2CCSCC2)cc1 (stereo not drawn) [Example 36.28] | 4.4
11 | N#CCNC(=O)N1C(=O)N(c2cccc(C(F)(F)F)c2)C2=C(C(=O)CCC2)C1c1ccc(C#N)cc1 (stereo not drawn) [Example 70.2] | < 1
12 | CC(C)NC(=O)N1C(=O)N(c2cccc(C(F)(F)F)c2)C2=C(C(=O)CCC2)C1c1ccc(C#N)cc1 (stereo not drawn) [Example 70.4] | 1.4
13 | N#Cc1ccc(C2C3=C(CCCC3=O)N(c3cccc(C(F)(F)F)c3)C(=O)N2CC(=O)N2CCC(F)C2)cc1 (stereo not drawn) [Example 36.11] | 5.1
14 | N#Cc1ccc(C2C3=C(CCCC3=O)N(c3cccc(C(F)(F)F)c3)C(=O)N2CC(=O)NCC2CCCOC2)cc1 (stereo not drawn) [Example 36.42] | 9.9
15 | N#Cc1ccc(C2C3=C(CCCC3=O)N(c3cccc(C(F)(F)F)c3)C(=O)N2C(=O)NC2COC2)cc1 (stereo not drawn) [Example 39.5] | < 1
16 | CN(CC1(C)COC1)C(=O)CN1C(=O)N(c2cccc(C(F)(F)F)c2)C2=C(C(=O)CCC2)C1c1ccc(C#N)cc1 (stereo not drawn) [Example 36.41] | 7.4
17 | N#Cc1ccc(C2C3=C(CCCC3=O)N(c3cccc(C(F)(F)F)c3)C(=O)N2Cc2ccc(C(=O)O)o2)cc1 (stereo not drawn) [Example 29, 5-((4-(4-Cyanophenyl)-2,5-dioxo-1-(3-(trifluoromethyl)phenyl)-1,2,5,6,7,8-hexahydroquinazolin-3(4H)-yl)methyl)furan-2-carboxylic acid] | 13.7
18 | CN1C(=O)N(c2ccnc(C(F)(F)F)c2)C2=C(C(=O)CCC2)C1c1ccc(C#N)cc1 (stereo not drawn) [Example 65, 4-(3-Methyl-2,5-dioxo-1-(2-(trifluoromethyl)pyridin-4-yl)-1,2,3,4,5,6,7,8-octahydroquinazolin-4-yl)benzonitrile] | 22.6
19 | CC(=O)N1CCN(C(=O)CN2C(=O)N(c3cccc(C(F)(F)F)c3)C3=C(C(=O)CCC3)C2c2ccc(C#N)cc2)CC1 (stereo not drawn) [Example 36.60] | 3.7
20 | N#Cc1ccc(C2C3=C(CCCC3=O)N(c3cccc(C(F)(F)F)c3)C(=O)N2S(=O)(=O)c2ccco2)cc1 (stereo not drawn) [Example 44.4] | 15.6
21 | N#Cc1ccc(C2C3=C(CCCC3=O)N(c3cccc(C(F)(F)F)c3)C(=O)N2S(=O)(=O)Cc2ccccc2)cc1 (stereo not drawn) [Example 44.8] | 9
22 | Cn1cc(NC(=O)CN2C(=O)N(c3cccc(C(F)(F)F)c3)C3=C(C(=O)CCC3)C2c2ccc(C#N)cc2)ccc1=O (stereo not drawn) [Example 36.53] | 10.7
23 | CCS(=O)(=O)N1C(=O)N(c2cccc(C(F)(F)F)c2)C2=C(C(=O)CCC2)C1c1ccc(C#N)cc1 (stereo not drawn) [Example 44.1] | 5.1

Row | Structure (SMILES) | IC50 [nM]
24 | Cc1nnc(CNC(=O)CN2C(=O)N(c3cccc(C(F)(F)F)c3)C3=C(C(=O)CCC3)C2c2ccc(C#N)cc2)o1 (stereo not drawn) [Example 36.35] | 7
25 | CC(C)CS(=O)(=O)N1C(=O)N(c2cccc(C(F)(F)F)c2)C2=C(C(=O)CCC2)C1c1ccc(C#N)cc1 (stereo not drawn) [Example 44.3] | 5.1
26 | CS(=O)(=O)c1cc(C#N)ccc1[C@@H]1C2=C(CCCC2=O)N(c2cccc(C(F)(F)F)c2)C(=O)N1C(=O)NC1CC(O)C1 (stereo partly drawn) [Example 75.11] | < 1
27 | N#Cc1ccc(C2C3=C(CCCC3=O)N(c3cccc(C(F)(F)F)c3)C(=O)N2CC(=O)N2CCN(C3CC3)CC2)cc1 (stereo not drawn) [Example 36.55] | 21.6
28 | COC(=O)CCCS(=O)(=O)N1C(=O)N(c2cccc(C(F)(F)F)c2)C2=C(C(=O)CCC2)C1c1ccc(C#N)cc1 (stereo not drawn) [Example 44.10, methyl 4-(4-(4-cyanophenyl)-2,5-dioxo-1-(3-(trifluoromethyl)phenyl)-1,2,5,6,7,8-hexahydroquinazolin-3(4H)-ylsulfonyl)butanoate] | 5.2
29 | N#Cc1ccc(C2C3=C(CCCC3=O)N(c3cccc(C(F)(F)F)c3)C(=O)N2C(=O)NC2CCOCC2)cc1 (stereo not drawn) [Example 70.14] | < 1
30 | N#Cc1ccc(C2C3=C(CCCC3=O)N(c3cccc(C(F)(F)F)c3)C(=O)N2C(=O)NC2CCS(=N)(=O)CC2)cc1 (stereo not drawn) [Example 72, 4-(4-Cyanophenyl)-2,5-dioxo-N-(1-imino-1-oxo-hexahydro-1λ^6-thiopyran-4-yl)-1-(3-(trifluoromethyl)phenyl)-1,2,5,6,7,8-hexahydroquinazoline-3(4H)-carboxamide] | < 1
31 | N#Cc1ccc(C2C3=C(CCCC3=O)N(c3cccc(C(F)(F)F)c3)C(=O)N2CC(=O)N2CCn3nccc3C2)cc1 (stereo not drawn) [Example 36.51] | 1.7
32 | N#Cc1ccc(C2C3=C(CCCC3=O)N(c3cccc(C(F)(F)F)c3)C(=O)N2C(=O)NC2CCOC2)cc1 (stereo not drawn) [Example 70.8] | < 1
33 | CN(CC1CC1)C(=O)CN1C(=O)N(c2cccc(C(F)(F)F)c2)C2=C(C(=O)CCC2)C1c1ccc(C#N)cc1 (stereo not drawn) [Example 36.7] | 3.4
34 | N#Cc1ccc(C2C3=C(CCCC3=O)N(c3cccc(C(F)(F)F)c3)C(=O)N2C(=O)NCC2CC(O)C2)cc1 (stereo not drawn) [Example 70.15] | < 1
35 | N#Cc1ccc(C2C3=C(CCCC3=O)N(c3cccc(C(F)(F)F)c3)C(=O)N2S(=O)(=O)c2cccnc2)cc1 (stereo not drawn) [Example 44.6] | 22.3
36 | N#Cc1ccc(C2C3=C(CCCC3=O)N(c3cccc(C(F)(F)F)c3)C(=O)N2CC(=O)N2CCNC(=O)C2)cc1 (stereo not drawn) [Example 36.21] | 2.1
37 | N#Cc1ccc(C2C3=C(CCCC3=O)N(c3cccc(C(F)(F)F)c3)C(=O)N2CC(=O)N2CCN3C(=O)CCCC3C2)cc1 (stereo not drawn) [Example 36.72] | 3.7
38 | N#Cc1ccc(C2NC(=O)N(c3ccc(F)c(C(F)(F)F)c3)C3=C2C(=O)CCC3)cc1 (stereo not drawn) [Example 52.1] | 19.3
39 | COCCCN1C(=O)N(c2cccc(C(F)(F)F)c2)C2=C(C(=O)CCC2)C1c1ccc(C#N)cc1 (stereo not drawn) [Example 24, 4-(1-(3-(Trifluoromethyl)phenyl)-3-(3-methoxypropyl)-2,5-dioxo-1,2,3,4,5,6,7,8-octahydroquinazolin-4-yl)benzonitrile] | 6.4
40 | N#Cc1ccc(C2C3=C(CCCC3=O)N(c3cccc(C(F)(F)F)c3)C(=O)N2C(=O)NC2CCCS(=O)(=O)C2)cc1 (stereo not drawn) [Example 70.20] | < 1
41 | CN1C(=O)CCC1CNC(=O)CN1C(=O)N(c2cccc(C(F)(F)F)c2)C2=C(C(=O)CCC2)C1c1ccc(C#N)cc1 (stereo not drawn) [Example 36.57] | 10.4
42 | CS(=O)(=O)C1CCN(C(=O)CN2C(=O)N(c3cccc(C(F)(F)F)c3)C3=C(C(=O)CCC3)C2c2ccc(C#N)cc2)C1 (stereo not drawn) [Example 36.70] | 2.3
43 | N#Cc1ccc(C2C3=C(CCCC3=O)N(c3cccc(C(F)(F)F)c3)C(=O)N2CC(=O)N2CCc3[nH]c(=O)ccc3C2)cc1 (stereo not drawn) [Example 36.71] | 2.2
44 | CCOC(=O)C(F)N1C(=O)N(c2cccc(C(F)(F)F)c2)C2=C(C(=O)CCC2)C1c1ccc(C#N)cc1 (stereo not drawn) [Example 60, Ethyl 2-(4-(4-Cyanophenyl)-2,5-dioxo-1-(3-(trifluoromethyl)phenyl)-1,2,5,6,7,8-hexahydroquinazolin-3(4H)-yl)-2-fluoroacetate] | 21.6
45 | CC(C)(CO)NC(=O)N1C(=O)N(c2cccc(C(F)(F)F)c2)C2=C(C(=O)CCC2)C1c1ccc(C#N)cc1 (stereo not drawn) [Example 70.10] | 2.4
